Laboratory results reported in the NIST ThermoML archive (doi:10.1021/je200373q).
Numbers after ± are expanded uncertainties.

Settings: 101.33 kPa, Liquid, Vibrating tube method

mass density (273.15 K)	mass density (278.15 K)	mass density (283.15 K)	mass density (288.15 K)	mass density (293.15 K)	mass density (298.15 K)	mass density (303.15 K)	mass density (308.15 K)	mass density (313.15 K)	mass density (318.15 K)	mass density (323.15 K)	mass density (328.15 K)	mass density (333.15 K)	mass density (338.15 K)	mass density (343.15 K)	mass density (348.15 K)	mass density (353.15 K)	mass density (358.15 K)	mass density (363.15 K)	Compound
732.83 ± 0.25 kg/m3	729.01 ± 0.25 kg/m3	725.16 ± 0.25 kg/m3	721.32 ± 0.25 kg/m3	717.45 ± 0.25 kg/m3	713.58 ± 0.25 kg/m3	709.69 ± 0.25 kg/m3	705.78 ± 0.25 kg/m3	701.86 ± 0.25 kg/m3	697.91 ± 0.25 kg/m3	693.95 ± 0.25 kg/m3	689.97 ± 0.25 kg/m3	685.97 ± 0.25 kg/m3	681.94 ± 0.25 kg/m3	677.88 ± 0.25 kg/m3	673.91 ± 0.25 kg/m3	669.71 ± 0.26 kg/m3	665.58 ± 0.26 kg/m3	661.14 ± 0.26 kg/m3	CCCCCCCCC [nonane]
718.25 ± 0.25 kg/m3	714.31 ± 0.25 kg/m3	710.34 ± 0.25 kg/m3	706.35 ± 0.25 kg/m3	702.35 ± 0.25 kg/m3	698.34 ± 0.25 kg/m3	694.3 ± 0.25 kg/m3	690.24 ± 0.25 kg/m3	686.17 ± 0.25 kg/m3	682.06 ± 0.25 kg/m3	677.94 ± 0.25 kg/m3	673.79 ± 0.25 kg/m3	669.61 ± 0.26 kg/m3	665.4 ± 0.26 kg/m3	661.16 ± 0.26 kg/m3	656.88 ± 0.26 kg/m3	652.57 ± 0.26 kg/m3	648.23 ± 0.26 kg/m3	643.83 ± 0.26 kg/m3	CCCCCCCC [octane]
